# Measured values reported in ChEMBL document CHEMBL1201862, “PubChem BioAssay data set” (2004).
# Active and inactive are the calls of the source.
# Tests used:
# [1] = biological target: Cytochrome P450 2D6 (Homo sapiens, UniProt P10635);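 further: CYP2D6 member of a cytochrome P450 panel assay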
# [2] = biological target: Cytochrome P450 2C9 (Homo sapiens, UniProt P11712)
# [3] = biological target: T1, Cytochrome P450 1A2 (Homo sapiens, UniProt P05177);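 further: PubChem cytochrome P450 panel assay, CYP1A2 panel member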
# T1 sequence (P05177 whole entry): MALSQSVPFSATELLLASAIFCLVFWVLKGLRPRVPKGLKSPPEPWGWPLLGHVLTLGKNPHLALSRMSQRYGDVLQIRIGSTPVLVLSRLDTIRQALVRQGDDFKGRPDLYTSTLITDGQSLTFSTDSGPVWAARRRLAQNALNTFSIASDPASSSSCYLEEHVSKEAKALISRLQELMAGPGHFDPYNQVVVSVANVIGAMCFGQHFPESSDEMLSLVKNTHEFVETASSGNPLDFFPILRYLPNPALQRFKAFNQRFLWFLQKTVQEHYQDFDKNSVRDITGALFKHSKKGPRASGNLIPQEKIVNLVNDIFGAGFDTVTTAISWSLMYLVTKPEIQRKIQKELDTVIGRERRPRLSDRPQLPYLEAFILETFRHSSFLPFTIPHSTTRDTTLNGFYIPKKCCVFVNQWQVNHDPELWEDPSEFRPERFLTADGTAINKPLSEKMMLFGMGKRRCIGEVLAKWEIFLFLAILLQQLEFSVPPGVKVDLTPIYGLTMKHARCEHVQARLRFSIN
# [4] = biological target: Cytochrome P450 2C19 (Homo sapiens, UniProt P33261); assay: Cytochrome panel assay with activity outcomes. Panel member name: p450-cyp2c19 Compounds with AC50 equal or less than 10 uM are considered active; assay type: functional
# [5] = biological target: Cytochrome P450 3A4 (Homo sapiens, UniProt P08684);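 further: CYP3A4 tested as one member of a cytochrome P450 panel screen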
# [6] = biological target: T2, Rac GTPase-activating protein 1 (Homo sapiens, UniProt Q9H0H5); assay: blockers of MgcRacGAP-driven Rac1 GTP hydrolysis – biochemical, ADP Hunter fluorescence, primary and confirmatory, confirmation (AID 624330); assay type: functional
# T2 sequence (Q9H0H5 whole entry): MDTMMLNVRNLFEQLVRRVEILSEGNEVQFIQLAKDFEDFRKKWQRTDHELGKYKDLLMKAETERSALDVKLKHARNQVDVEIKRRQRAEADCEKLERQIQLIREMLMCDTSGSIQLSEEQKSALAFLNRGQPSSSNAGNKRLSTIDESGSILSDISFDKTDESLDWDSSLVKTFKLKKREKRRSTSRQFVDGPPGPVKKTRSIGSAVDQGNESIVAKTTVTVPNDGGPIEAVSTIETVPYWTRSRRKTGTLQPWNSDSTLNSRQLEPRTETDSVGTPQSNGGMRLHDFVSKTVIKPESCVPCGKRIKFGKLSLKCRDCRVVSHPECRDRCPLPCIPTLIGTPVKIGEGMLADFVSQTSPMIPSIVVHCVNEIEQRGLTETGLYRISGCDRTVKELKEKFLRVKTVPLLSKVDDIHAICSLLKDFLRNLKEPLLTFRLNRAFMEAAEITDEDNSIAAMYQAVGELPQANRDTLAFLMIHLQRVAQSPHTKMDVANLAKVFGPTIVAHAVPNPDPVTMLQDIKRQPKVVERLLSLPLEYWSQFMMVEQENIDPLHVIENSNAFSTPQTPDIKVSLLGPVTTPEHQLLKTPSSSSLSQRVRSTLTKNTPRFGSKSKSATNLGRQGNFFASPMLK
# [7] = biological target: T3, Heat shock factor protein 1 (Mus musculus, UniProt P38532); assay: enhancement of HSF1-driven luciferase signal – cell-based, NIH3T3, luminescence, dose retest, confirmation (AID 435004); assay type: functional;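 further: stress induced by proteasome inhibitor MG132 added 30 min after compound; luciferase reporter driven by HSF1 response element in NIH3T3 cells; actives raise luminescence as potentiators of the MG132 stress response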
# T3 sequence (P38532 whole entry): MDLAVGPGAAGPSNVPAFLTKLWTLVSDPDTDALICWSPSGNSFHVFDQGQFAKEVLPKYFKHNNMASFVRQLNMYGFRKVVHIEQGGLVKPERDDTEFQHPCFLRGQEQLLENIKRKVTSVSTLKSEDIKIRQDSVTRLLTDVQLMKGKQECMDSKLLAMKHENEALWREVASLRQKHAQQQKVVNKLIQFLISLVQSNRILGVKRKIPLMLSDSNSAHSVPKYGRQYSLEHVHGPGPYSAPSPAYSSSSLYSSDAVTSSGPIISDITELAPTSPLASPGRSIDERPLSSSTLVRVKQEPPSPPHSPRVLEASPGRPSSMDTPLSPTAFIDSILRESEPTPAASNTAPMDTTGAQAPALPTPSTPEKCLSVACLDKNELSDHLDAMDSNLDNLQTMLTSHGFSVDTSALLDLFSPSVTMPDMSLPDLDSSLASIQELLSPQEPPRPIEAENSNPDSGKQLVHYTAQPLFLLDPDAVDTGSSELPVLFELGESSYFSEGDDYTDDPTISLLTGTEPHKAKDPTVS
# [8] = NIH-3T3 fibroblast cytotoxicity, dose response, cytotoxicity control, cell-based, fluorescence, Alamar Blue, secondary assay (AID 2327); assay type: functional;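 further: NIH-3T3 mouse fibroblasts cultured with fluconazole at 8 µg/mL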
# [9] = fluconazole-exposed Candida albicans growth modulators – fluorescence, retest, confirmation (AID 2467); assay type: functional, cell-based
# [10] = cells; assay type: functional
# [11] = biological target: T4, Protein skinhead-1 (Caenorhabditis elegans, UniProt P34707); assay type: functional
# T4 sequence (P34707 whole entry): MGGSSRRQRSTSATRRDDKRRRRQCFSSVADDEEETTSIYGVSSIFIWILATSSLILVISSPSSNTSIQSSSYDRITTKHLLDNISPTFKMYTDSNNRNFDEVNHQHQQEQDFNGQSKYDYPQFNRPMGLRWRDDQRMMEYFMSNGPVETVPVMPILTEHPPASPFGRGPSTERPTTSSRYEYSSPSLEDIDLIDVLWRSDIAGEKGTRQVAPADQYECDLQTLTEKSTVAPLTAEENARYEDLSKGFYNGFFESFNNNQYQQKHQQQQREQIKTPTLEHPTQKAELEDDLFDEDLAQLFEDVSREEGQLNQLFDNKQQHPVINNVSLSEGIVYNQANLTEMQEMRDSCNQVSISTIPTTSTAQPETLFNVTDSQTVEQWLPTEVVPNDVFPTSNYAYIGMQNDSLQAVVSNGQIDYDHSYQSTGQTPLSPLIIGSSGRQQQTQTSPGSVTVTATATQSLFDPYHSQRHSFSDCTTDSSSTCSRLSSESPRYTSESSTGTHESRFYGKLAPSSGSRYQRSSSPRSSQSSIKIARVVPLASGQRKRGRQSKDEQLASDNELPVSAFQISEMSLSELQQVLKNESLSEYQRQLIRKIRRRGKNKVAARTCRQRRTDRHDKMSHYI
# [12] = tested on: H9c2; assay: cells; assay type: functional, cell-based; conditions: Rattus norvegicus, H9c2, Myocardium;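 further: confirmatory concentration-response retest of ultra-high-throughput screening hits for modulation of myocardial damage; cell death induced by hydrogen peroxide oxidative stress; compound pretreatment for 60 min then peroxide exposure for 2 h; potency is for protecting the cells against peroxide damage rather than for killing them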
# Sequence of Cytochrome P450 2C19 (P33261 whole entry): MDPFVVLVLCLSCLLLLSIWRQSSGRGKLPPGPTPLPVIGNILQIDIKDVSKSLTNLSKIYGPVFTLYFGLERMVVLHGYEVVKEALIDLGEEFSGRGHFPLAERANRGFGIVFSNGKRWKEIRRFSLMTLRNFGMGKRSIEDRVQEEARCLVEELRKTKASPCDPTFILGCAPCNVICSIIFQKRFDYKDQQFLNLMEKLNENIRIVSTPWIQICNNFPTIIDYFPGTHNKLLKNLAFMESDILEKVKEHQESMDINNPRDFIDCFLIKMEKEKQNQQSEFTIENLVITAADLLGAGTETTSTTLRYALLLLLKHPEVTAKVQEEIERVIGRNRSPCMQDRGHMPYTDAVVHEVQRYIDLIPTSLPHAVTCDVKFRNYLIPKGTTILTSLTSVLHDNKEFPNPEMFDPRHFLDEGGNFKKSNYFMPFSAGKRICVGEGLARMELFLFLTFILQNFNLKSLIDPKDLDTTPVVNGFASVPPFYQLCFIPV
# Sequence of Cytochrome P450 2C9 (P11712 whole entry): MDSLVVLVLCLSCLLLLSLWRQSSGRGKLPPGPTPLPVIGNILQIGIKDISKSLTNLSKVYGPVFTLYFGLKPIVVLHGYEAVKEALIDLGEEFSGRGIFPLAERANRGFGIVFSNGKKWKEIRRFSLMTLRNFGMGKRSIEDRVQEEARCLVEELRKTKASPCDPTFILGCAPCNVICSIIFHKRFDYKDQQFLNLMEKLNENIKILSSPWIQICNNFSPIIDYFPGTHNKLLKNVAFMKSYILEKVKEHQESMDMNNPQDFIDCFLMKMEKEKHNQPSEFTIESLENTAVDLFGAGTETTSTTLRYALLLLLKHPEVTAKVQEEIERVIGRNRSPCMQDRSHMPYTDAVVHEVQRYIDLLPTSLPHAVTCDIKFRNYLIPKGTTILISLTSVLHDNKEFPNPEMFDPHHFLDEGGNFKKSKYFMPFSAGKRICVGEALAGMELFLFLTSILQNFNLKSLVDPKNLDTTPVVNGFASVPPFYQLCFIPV
# Sequence of Cytochrome P450 3A4 (P08684 whole entry): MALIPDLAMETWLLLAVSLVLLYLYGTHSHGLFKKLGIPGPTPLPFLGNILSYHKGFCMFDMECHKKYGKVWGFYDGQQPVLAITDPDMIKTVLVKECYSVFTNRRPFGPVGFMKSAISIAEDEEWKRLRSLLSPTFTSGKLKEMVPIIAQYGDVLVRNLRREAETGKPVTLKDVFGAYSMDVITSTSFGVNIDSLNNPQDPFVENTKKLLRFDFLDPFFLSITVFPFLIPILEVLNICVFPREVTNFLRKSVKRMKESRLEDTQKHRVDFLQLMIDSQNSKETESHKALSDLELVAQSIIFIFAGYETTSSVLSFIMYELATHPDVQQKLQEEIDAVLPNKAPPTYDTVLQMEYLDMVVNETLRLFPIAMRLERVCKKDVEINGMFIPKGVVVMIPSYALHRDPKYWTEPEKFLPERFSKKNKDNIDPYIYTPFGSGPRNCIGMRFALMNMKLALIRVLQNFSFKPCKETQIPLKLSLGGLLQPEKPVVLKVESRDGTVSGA
# Sequence of Cytochrome P450 2D6 (P10635 whole entry): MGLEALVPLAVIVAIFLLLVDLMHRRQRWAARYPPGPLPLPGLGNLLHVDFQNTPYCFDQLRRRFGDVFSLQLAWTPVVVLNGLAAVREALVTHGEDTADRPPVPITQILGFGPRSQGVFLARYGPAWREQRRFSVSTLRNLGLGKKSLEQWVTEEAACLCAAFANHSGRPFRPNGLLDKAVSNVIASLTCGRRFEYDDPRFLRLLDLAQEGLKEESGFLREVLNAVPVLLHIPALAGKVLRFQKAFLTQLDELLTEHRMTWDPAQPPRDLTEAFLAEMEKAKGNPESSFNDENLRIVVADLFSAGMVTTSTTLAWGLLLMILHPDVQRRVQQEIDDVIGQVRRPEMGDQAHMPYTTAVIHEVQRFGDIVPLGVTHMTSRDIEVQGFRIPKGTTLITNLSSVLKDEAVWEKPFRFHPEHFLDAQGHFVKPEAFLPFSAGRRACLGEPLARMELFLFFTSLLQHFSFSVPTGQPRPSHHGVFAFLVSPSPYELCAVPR
structure (smiles),measurement,setting,value
O=C(Nc1ccc(Cl)cc1)OCc1cc(-c2ccccc2)on1,AC50,[1],3.98 µM (inconclusive)
same,AC50,[2],2.82 µM (inconclusive)
O=c1c(CCc2ccccc2)nc2cnc(N3CCOCC3)nc2n1CCc1ccccc1,AC50,[3],25.1 µM (inconclusive)
same,AC50,[2],2 µM (inconclusive)
COc1ccccc1C(OC(=O)c1cccs1)C(=O)NCC1CCCO1 (stereo not given),AC50,[4]; read-out: AC50,5.01 µM (inconclusive)
same,AC50,[3],14.1 µM (inconclusive)
same,AC50,[5],25.1 µM (inconclusive)
same,AC50,[2],14.1 µM (inconclusive)
Oc1ccc(NCc2ccc(OCc3ccccc3)cc2)cc1,IC50,[6],60.5 µM (active)
Cc1ccc(N2Cc3ccccc3OC(C)C2=O)cc1 (stereo not given),EC50,[7],> 260 µM (inactive)
O=C(Nc1nnc(-c2ccccn2)o1)c1ccc(Br)cc1,EC50,[8],18.3 µM (inconclusive)
same,EC50,[9],> 38 µM (not active)
O=[N+]([O-])c1ccc(N2CCN(Cc3ccc([N+](=O)[O-])o3)CC2)cc1,EC50,[8],> 150 µM (inactive)
same,EC50,[9],> 38 µM (not active)
same,IC50,[10],< 0.1 µM (active)
O=C1Nc2ccccc2C(O)(C(=O)NCc2ccco2)N1c1ccc(Cl)c(Cl)c1 (stereo not given),IC50,[11],> 100 µM (inactive)
COc1cc(/C=C/C(=O)OCC(=O)c2ccc(OC(F)F)cc2)ccc1O,IC50,[6],64 µM (active)
CCOc1ccc(S(=O)(=O)NCCSc2ccccc2)cc1,EC50,[7],> 260 µM (inactive)
CCCCc1cc(=O)oc2cc(OCC(=O)N(CC)CC)ccc12,AC50,[4]; read-out: AC50,31.6 µM (inconclusive)
same,AC50,[2],25.1 µM (inconclusive)
O=[N+]([O-])c1ccc(/C=N/NS(=O)(=O)c2ccc(Cl)cc2)o1,IC50,[10],6.23 µM (active)
COC(=O)/C(=N\Nc1ccc(Cl)cc1)Sc1nnc(-c2ccc(OC)cc2)n1C,EC50,[8],> 160 µM (inactive)
same,EC50,[9],> 38 µM (not active)
NC(=O)c1ccc([N+](=O)[O-])cc1SCc1ccccc1,AC50,[5],12.6 µM (inconclusive)
same,AC50,[2],28.2 µM (inconclusive)
CCC(C)NC(=O)CC(NS(=O)(=O)c1ccc(Cl)cc1)c1ccco1 (stereo not given),EC50,[7],> 260 µM (inactive)
COC(=O)c1cc(/C=C/c2ccccc2)on1,AC50,[3],2 µM (inconclusive)
same,IC50,[10],5.44 µM (active)
O=C1c2ccccc2C(Cc2ccncc2)(Cc2ccncc2)c2ccccc21,AC50,[3],39.8 µM (inconclusive)
same,AC50,[2],20 µM (inconclusive)
Nc1cc(Cc2ccccc2)ccc1O,IC50,[6],18 µM (active)
COc1ccc([N+](=O)[O-])cc1NCc1ccccc1C,AC50,[1],17.8 µM (inconclusive)
same,AC50,[2],17.8 µM (inconclusive)
CC(C)[C@@H]1O[C@H](/C=C\c2ccccc2)OCC1(C)C,AC50,[4]; read-out: AC50,5.01 µM (inconclusive)
same,AC50,[5],5.01 µM (inconclusive)
same,AC50,[2],3.16 µM (inconclusive)
O=[N+]([O-])c1cccc2ccc(/C=C/c3ccc(F)cc3)nc12,IC50,[11],> 100 µM (inactive)
Cc1cccc(/C=N/c2ccc3c4c(cccc24)CC3)c1O,IC50,[6],20 µM (active)
CCOC(=O)C1=C(C)N=C(C)/C(=C(\O)OCC)C1c1sccc1C (stereo not given),AC50,[2],0.891 µM (inconclusive)
O=[N+]([O-])c1ccc(Cc2nnc(O)c3ccccc23)cc1,IC50,[12],> 79 µM (inactive)
same,IC50,[11],> 100 µM (inactive)
CC(=O)CSc1nc2ccccc2s1,IC50,[11],> 100 µM (inactive)
CCc1ccc(-n2c(SCC(=O)Nc3cc(C)[nH]n3)nc3nncc-3c2O)cc1,IC50,[11],> 100 µM (inactive)
Cc1ccc(C(=O)NC(=S)Nc2cccc3nsnc23)cc1,AC50,[4],inconclusive
same,AC50,[2],35.5 µM (inconclusive)
CC(C)(CN)CC(=O)O,EC50,[7],> 260 µM (inactive)
Cc1ccc(/C=C2\OC(=O)c3ccccc32)cc1,AC50,[2],0.355 µM (inconclusive)
CC(/C=C/c1cccs1)=C\C(=O)O,EC50,[7],> 260 µM (inactive)
Cc1cccc(C)c1NCc1nnc(SCC(=O)Nc2nc(-c3ccccc3)cs2)n1-c1ccccc1,EC50,[7],> 260 µM (inactive)
COc1ccc(OC)c(-n2c(=O)c3ccccc3c3ccccc3c2=O)c1,EC50,[7],30.2 µM (active)
CC(=O)Oc1ccc(/C=C2\N=C(C3CCCCC3)OC2=O)cc1,IC50,[10],33.9 µM (active)
Clc1ccc(Nc2ncnc3c2cnn3-c2ccccc2)cc1,IC50,[11],> 100 µM (inactive)
C/C(=N\N1C(=O)CSC1=S)c1ccc(Br)cc1,EC50,[8],> 160 µM (inactive)
same,EC50,[9],> 38 µM (not active)
Cc1ccc(C(=O)N(C)CC(=O)Nc2ccc(N3CCOCC3)cc2)s1,IC50,[11],> 100 µM (inactive)
COC(=O)c1cc(NCc2cccs2)ccc1N1CCOCC1,IC50,[6],135 µM (active)
Nc1cc2c(cc1Cl)-c1ccccc1C2,IC50,[11],52.5 µM (inactive)
O=c1c(-c2ccccc2)nc2cnc(N3CCOCC3)nc2n1Cc1ccc(F)cc1,AC50,[3],20 µM (inconclusive)
same,AC50,[2],15.8 µM (inconclusive)
COc1cc(/C=C/c2ccc3c([N+](=O)[O-])cccc3n2)ccc1OCC(=O)O,IC50,[10],2.39 µM (active)
CN(C)/C=C/C(=O)c1cccc(Oc2ncccn2)c1,EC50,[7],> 260 µM (inactive)
O=C(O)c1ccc2c(c1)CCCN2,IC50,[11],> 100 µM (inactive)
CCOC(=O)CN1NC2(CCCC(C)C2)N=C1S (stereo not given),IC50,[10],48.9 µM (active)
Cc1ccc(NC(=O)CCNCc2ccco2)cc1S(=O)(=O)N(C)C,IC50,[6],229 µM (active)
CCN1C(=O)C2(SC(NC(C)=O)=NN2C(C)=O)c2cc(C)ccc21 (stereo not given),AC50,[4]; read-out: AC50,14.1 µM (inconclusive)
same,AC50,[2],31.6 µM (inconclusive)
O=C(Cn1c2ccc(F)cc2c2nc3n(c(=O)c21)CCS3)N1CCCC1,EC50,[8],> 160 µM (inactive)
same,EC50,[9],0.66 µM (active)
O=C1CC(N(Cc2ccc3c(c2)OCO3)C(=O)Nc2ccc(F)cc2)C(=O)N1c1ccccc1 (stereo not given),EC50,[7],> 260 µM (inactive)
COC(=O)C(C)Sc1nc2c(c(=O)n(C)c(=O)n2C)n1CCC(C)C (stereo not given),EC50,[7],> 260 µM (inactive)
